Tests used:
GABAR α4 subunit = assay: Western blot of α4 subunit in hippocampus after steroid and ethanol administration; type: in vivo, rat; conditions: 48 hours of exposure to 3α,5β-THP (10 mg/kg i.p.), saline
Protocol: (§1) Animals were administered steroids using one of two protocols: (i) For the 48 hour steroid administration protocol, animals were injected with 10 mg/kg 3α, 5β THP in oil, i.p., on a daily basis for three days and sacrificed 1-2 hour following the final injection. Controls were injected with oil vehicle. […] At this time, the capsule was removed and the animals were injected with 17 β estradiol (2 μgs/animal) in order to reset their cycle. Animals were sacrificed 24 hours later. […] In all cases, implantation and removal of capsules were performed under halothane anesthesia. […] Therefore, this study employed the 5β isomer of the steroid.
(§2) In some groups of animals, either ethanol (0.5 g/kg in saline) or saline vehicle was administered i.p. (3×, every 40 minutes) for the final 2 hours of the respective steroid administration or withdrawal paradigm. The use of multiple injections of low doses of ethanol would approximate ethanol consumption in the human more closely than would a single injection. For the 48 hour steroid administration paradigm, animals received their first ethanol injection immediately after the steroid injection, and subsequent injections at 40 minute intervals. In all cases, animals were sacrificed 40 minutes after the final ethanol injection (2 hours after the first ethanol injection and final steroid injection). All animal protocols were carried out with the approval of the Institutional Animal Care and Use Committee.
Hippocampi removed from steroid or vehicle-treated animals were homogenized, and membranes prepared as previously described (65). Following electrophoresis on 8% SDS polyacrylamide gels, membranes were transferred to a nitrocellulose membrane (Bio-Rad, Hercules, Calif.). α4 subunit levels were detected by evaluating the band density at 67 kDa after probing with a polyclonal antibody (64). Membranes were incubated for 1-2 hours at room temperature with a 1:5000 dilution of horseradish peroxidase-conjugated donkey anti-rabbit IgG (Amersham, Arlington Heights, Ill.), and visualized with enhanced chemiluminescence with varying concentrations of protein in the linear range. Immunoreactive band densities were quantified using a CCD camera (UMAX Scanner) and one-Dscan software, which uses multiple Gaussian fits to achieve accurate band density profiles.

[1] = tested on: GABAR of acutely dissociated CA1 hippocampal pyramidal neurons; assay: Whole cell patch clamp, lorazepam modulation and decay of GABA-gated current after steroid/ethanol treatment; type: cell-based, rat
Protocol: as §1, §2
Currents were recorded using an Axopatch 1D amplifier (Axon Instruments) filtered at 2 kHz (four-pole Bessel filter) and detected at 500 Hz (pClamp 5.1).

[2] = tested on: GABAA receptors of acutely isolated CA1 hippocampal pyramidal cells; assay: Whole cell patch clamp, ethanol or THIP effect on GABA-gated current; type: cell-based, rat; conditions: after progesterone withdrawal
Protocol: Pyramidal neurons were acutely dissociated from CA1 hippocampus and GABA-gated Cl^− currents analyzed using whole cell patch clamp procedures as previously described (67). Briefly, tissue was digested at 32° C. for 50-60 minutes under 100% O2 in PIPES-buffered saline containing (in mM): NaCl 120, KCl 5, CaCl2 1, MgCl2 1, D-glucose 25, PIPES 20 and trypsin (type XI, sigma) 0.8 mg/ml, pH 7.0. After 1 hour of enzyme-free incubation at room temperature, tissue was dissociated by trituration in 1 ml of 20 mM HEPES-buffered DMEM which was replaced by recording medium after transfer to the recording chamber. GABA-gated currents were recorded at room temperature (20-25° C.) at a holding potential of −50 mV in a bath containing (in mM): NaCl 120, CsCl 5, CaCl2 2, MgCl2 1, TEA Cl 15, 4-aminopyridine 5, HEPES 10 and glucose 25, pH 7.4, 320 mOsm/kg H2O. The pipette solution contained (in mM): N-methyl-D-glucamine chloride 120, Cs4BAPTA 5 and Mg-ATP 5. The ATP regeneration system Tris phosphocreatine (20 mM) and creatine kinase were added to minimize GABA rundown. All drugs were obtained from Sigma Chemical Co, (St. Louis, Mo.), except for BAPTA (Calbiochem, San, Diego, Calif.).
Peak currents were calculated for all drug concentrations as relative to the current gated by 10 μM GABA alone using the equation: ([peak current: GABA+ETOH]−[peak current: GABA alone])/[peak current: GABA alone]. Currents were recorded using an Axopatch 1D amplifier (Axon Instruments) filtered at 2 kHz (four-pole Bessel filter) and detected at 500 Hz (pClamp 5.1).
Following progesterone withdrawal or control conditions, pyramidal cells were acutely isolated from CA1 hippocampus as described (65,64). GABA-gated Cl^− currents were recorded using whole cell patch clamp techniques at a holding potential of −50 mV.

α4β2δ GABAA receptors [3] = molecular target: T1, α4β2δ GABAA receptors (UniProt O14764+P63138+Q9D6F4); conditions: α4βδ receptors (ref. 6); cited from earlier work
T1 construct: expressed in transfected cells

α4β2δ GABAA receptors [4] = molecular target: T1, α4β2δ GABAA receptors; assay: Two-electrode voltage-clamp of recombinant GABAA receptors in oocytes; type: cell-based
female Long Evans rats = assay: Acoustic startle response (ASR); type: in vivo, rat; conditions: THIP 3 mg/kg i.p.
Protocol: Animals were tested in a stabilimeter device (SR-Lab Startle Response System, San Diego Instruments, Inc., San Diego, Calif.) that permits vertical movement of a Plexiglas platform contained within a lit, well-ventilated sound-attenuating chamber (26). The amplitude of movement is detected by a piezoelectric device with a voltage output proportional to platform displacement. The analog output of the accelerometer is then amplified and digitized before computer analysis. Five minutes after i.p. administration of 10% ethanol (0.05-1.6 g/kg) or saline vehicle (1.5 ml volume) or 25 minutes after 4,5,6,7-tetrahydroisoxazolo[5,4-c]pyridin-3-ol injection (3 mg/kg, i.p.), animals were placed in the chamber for a 5 minutes acclimation period. […] Four acoustic stimuli (116 dB, 40 ms duration) were then presented at random intervals once every 10-15 seconds via a white-noise generator through speakers positioned on either side of the cage. […] For each acoustic stimulus, the amplitude and integrated response (amplitude and duration) were determined and normalized to the weight of the animal. Values for the integrated response after administration of each dose of ethanol or 4,5,6,7-tetrahydroisoxazolo[5,4-c]pyridin-3-ol were averaged and expressed as a fraction of the saline control average for the indicated treatment (progesterone withdrawal versus control) group in order to minimize variability between groups. […] It is also routinely used to assess behavioral excitability after withdrawal from BDZs and ethanol (73).
Animals were tested in a stabilimeter device (SR-Lab Startle Response System, San Diego Instruments, Inc.) that permitted vertical movement of a Plexiglas cage contained within a lit, well-ventilated, sound-attenuating chamber. The amplitude of movement was detected by a piezoelectric device with a voltage output proportional to cage displacement. The analog output of the accelerometer was amplified and digitized before computer analysis (15). Five minutes following intraperitoneal administration of alcohol (0.2 or 0.4 g/kg) or saline vehicle (1.5 ml volume), animals were placed in the chamber for 5 a minute acclimation period. Five acoustic stimuli (116 dB, 40 msec duration) were then presented once every 10-15 seconds via a white-noise generator through speakers positioned on either side of the cage. For each acoustic stimulus, the integrated response (amplitude and duration) was averaged across a 100 msec post-stimulus time period and the response latency determined. Both values were normalized to the weight of the animal. Values for the integrated response for the first noise stimulus following administration of each dose of alcohol were averaged and expressed as a fraction of the saline control average for the indicated treatment (P Wd versus control) group. […] It is routinely used to assess behavioral excitability following withdrawal from benzodiazepiness (48) and alcohol (73), and is known to be modified by GABA modulators, such as diazepam (11), and by local infusion of excitatory compounds into dorsal hippocampus (85).

[5] = molecular target: T2, α1β2δ receptors (oocytes injected with α1+β2+δ) (Rattus norvegicus, UniProt P62813+P63138); type: cell-based, human δ, expressed in Xenopus laevis oocytes; conditions: 1 μM zinc; the other 15 oocytes injected with α1+β2+δ
T2 construct: expressed in transfected cells; host or cells: oocytes injected with cRNA (Xenopus laevis is named only)
Description: (§3) Plasmids with inserts encoding GABAA receptor subunit sequence for rat α1 (62), rat β2 (83), rat α2 (62), rat α5 (62), mouse α4 (37), mouse β3 (82), rat β1 (83), rat γ2S (63), human δ (12), and human ε (11) were produced by subcloning each separately into an appropriate cloning vehicle such as PCDM8, pCDNA3.1 or pGHEMHE vectors (Invitrogen, Carlsbad Calif.) using a T7 promoter and standard subcloning techniques (59). Plasmids were linearized with an appropriate restriction enzyme at a site 3′ to the insert and cRNAs were synthesized using T3 or T7 polymerase (mMessage mMachine, Ambion, Tex.). The size of the cRNA was verified and RNA was quantified by ethidium bromide staining after electrophoresis on 1% agarose gels.
(§4) The preparation, injection, and maintenance of oocytes were carried out as described previously (78). Oocytes were injected with receptor subunit cRNAs (2 to 20 ng) in the following ratios: α1:β1:γ2S, α1:β2:γ2S and α1:β1:ε1, 1:1:1; α2:β1:γ2S, α5:β1:γ2S, α4:β1:γ2S, and α4:β2:γ2S, 10:1:1; α4:β1:δ, α4:β2:δ, α4:β3δ, 10:1:10; α1:β2:δ, 1:1:10 or 1:0.5:3; α1:β1:δ, 1:1:10 or 1:0.5:3; α2:β1:δ and α2:β2:δ, 1:0.5:3; α1:β1, α1:β2, α2:β1, α2:β2, β2:γ2S and α4δ, 1:1, α4:β1, α4:β2, α4:β3, 10:1, β2δ, 1:10.
(§5) Voltage-clamp recording was carried out 1 to 3 days after injection of cRNAs. Electrodes were filled with 3 M KCl and had resistances of 0.4-4 MΩ. Oocytes were positioned in a small Perspex chamber and continuously superfused with a saline solution (100 mM NaCl, 2 mM KCl, 1.8 mM CaCl2, 10 mM HEPES, pH 7.5). Agonists and modulators were both applied in the same saline solution. Oocytes were voltage-clamped at −70 mV and macroscopic currents were recorded with a two-electrode voltage-clamp using a Warner Instruments OC-725 amplifier as described previously (79). Currents were recorded on a chart recorder or by using Axograph on a Macintosh computer.
(§6) Other subunits (α1, α2, β1, β2) were tested for co-expression with the δ subunit. […]

[6] = molecular target: T3, α1β2δ receptors (oocytes injected with α1+β2+δ) (UniProt O14764+P62813+P63138); type: cell-based, rat α1, rat β2, human δ, expressed in Xenopus laevis oocytes; conditions: 1 μM zinc; 7 of 22 oocytes injected with α1+β2+δ
T3 construct: expressed in transfected cells; host or cells: oocytes injected with cRNA (Xenopus laevis is named only)
Description: as §3, §4, §5, §6

α1β2 receptors = molecular target: T4, α1β2 receptors (Rattus norvegicus, UniProt P62813+P63138); assay: Two-electrode voltage-clamp of recombinant GABAA receptors in oocytes; type: cell-based, expressed in Xenopus laevis oocytes; conditions: 1 μM zinc; n=5
T4 construct: expressed in transfected cells; host or cells: oocytes injected with cRNA (Xenopus laevis is named only)
Description: as §3
The preparation, injection, and maintenance of oocytes were carried out as described previously (78). […]
Voltage-clamp recording was carried out 1 to 3 days after injection of cRNAs. […] Oocytes were voltage-clamped at −70 mV and macroscopic currents were recorded with a two-electrode voltage-clamp using a Warner Instruments OC-725 amplifier as described previously (79). Currents were recorded on a chart recorder or by using Axograph on a Macintosh computer. […]

T1 sequence (Q9D6F4 36-552): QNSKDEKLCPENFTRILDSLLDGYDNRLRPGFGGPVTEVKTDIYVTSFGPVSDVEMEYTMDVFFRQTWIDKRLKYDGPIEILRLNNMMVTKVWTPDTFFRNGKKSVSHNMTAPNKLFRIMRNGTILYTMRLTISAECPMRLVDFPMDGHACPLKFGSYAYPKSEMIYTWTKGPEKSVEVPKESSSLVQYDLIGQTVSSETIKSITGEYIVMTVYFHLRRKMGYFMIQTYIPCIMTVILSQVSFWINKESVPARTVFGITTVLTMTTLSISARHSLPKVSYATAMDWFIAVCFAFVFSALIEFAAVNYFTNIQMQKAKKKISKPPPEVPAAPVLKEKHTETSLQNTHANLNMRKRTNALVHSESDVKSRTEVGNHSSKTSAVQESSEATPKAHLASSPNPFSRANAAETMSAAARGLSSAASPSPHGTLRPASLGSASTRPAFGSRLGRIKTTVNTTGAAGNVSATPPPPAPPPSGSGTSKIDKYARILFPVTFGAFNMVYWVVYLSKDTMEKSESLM
T1 sequence (P63138 25-474 limits assumed): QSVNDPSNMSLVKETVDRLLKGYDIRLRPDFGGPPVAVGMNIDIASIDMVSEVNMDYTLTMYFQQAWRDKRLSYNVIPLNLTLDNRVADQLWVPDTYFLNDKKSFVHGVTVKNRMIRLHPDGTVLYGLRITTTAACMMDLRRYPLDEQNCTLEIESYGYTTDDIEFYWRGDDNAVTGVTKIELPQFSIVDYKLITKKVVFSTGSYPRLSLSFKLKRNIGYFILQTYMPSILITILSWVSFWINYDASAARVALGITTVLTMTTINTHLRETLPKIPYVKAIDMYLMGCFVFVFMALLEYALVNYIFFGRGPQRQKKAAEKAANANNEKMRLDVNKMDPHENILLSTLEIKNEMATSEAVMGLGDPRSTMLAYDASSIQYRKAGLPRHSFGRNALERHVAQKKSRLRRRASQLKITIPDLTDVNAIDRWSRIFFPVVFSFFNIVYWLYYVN
T1 sequence (O14764 17-452 limits assumed): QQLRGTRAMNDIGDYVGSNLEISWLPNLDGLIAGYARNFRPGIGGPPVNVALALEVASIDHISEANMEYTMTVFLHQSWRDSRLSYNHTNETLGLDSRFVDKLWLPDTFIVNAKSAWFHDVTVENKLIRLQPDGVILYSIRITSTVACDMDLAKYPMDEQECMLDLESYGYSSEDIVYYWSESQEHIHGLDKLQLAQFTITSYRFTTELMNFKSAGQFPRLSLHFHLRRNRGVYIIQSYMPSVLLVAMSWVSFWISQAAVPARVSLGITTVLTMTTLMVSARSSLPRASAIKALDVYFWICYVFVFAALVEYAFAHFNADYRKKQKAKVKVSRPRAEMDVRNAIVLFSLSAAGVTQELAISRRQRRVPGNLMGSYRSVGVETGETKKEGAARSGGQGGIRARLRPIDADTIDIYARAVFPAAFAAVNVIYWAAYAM
T4 sequence (P62813 28-455): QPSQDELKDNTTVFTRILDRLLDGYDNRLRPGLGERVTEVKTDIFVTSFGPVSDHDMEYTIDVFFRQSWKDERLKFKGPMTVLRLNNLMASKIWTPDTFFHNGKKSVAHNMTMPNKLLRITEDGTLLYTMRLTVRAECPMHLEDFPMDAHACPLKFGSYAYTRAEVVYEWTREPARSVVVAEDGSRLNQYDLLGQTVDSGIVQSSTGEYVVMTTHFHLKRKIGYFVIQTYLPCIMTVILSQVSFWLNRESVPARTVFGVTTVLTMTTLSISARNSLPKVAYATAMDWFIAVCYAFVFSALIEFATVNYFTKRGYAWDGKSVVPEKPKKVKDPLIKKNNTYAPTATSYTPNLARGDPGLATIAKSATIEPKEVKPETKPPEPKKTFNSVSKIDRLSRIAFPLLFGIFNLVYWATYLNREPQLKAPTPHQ
T4 sequence (P63138 25-474 limits assumed): as the sequence (P63138 25-474 limits assumed) above
T2 sequence (P62813 28-455): as the sequence (P62813 28-455) above
T2 sequence (P63138 26-474): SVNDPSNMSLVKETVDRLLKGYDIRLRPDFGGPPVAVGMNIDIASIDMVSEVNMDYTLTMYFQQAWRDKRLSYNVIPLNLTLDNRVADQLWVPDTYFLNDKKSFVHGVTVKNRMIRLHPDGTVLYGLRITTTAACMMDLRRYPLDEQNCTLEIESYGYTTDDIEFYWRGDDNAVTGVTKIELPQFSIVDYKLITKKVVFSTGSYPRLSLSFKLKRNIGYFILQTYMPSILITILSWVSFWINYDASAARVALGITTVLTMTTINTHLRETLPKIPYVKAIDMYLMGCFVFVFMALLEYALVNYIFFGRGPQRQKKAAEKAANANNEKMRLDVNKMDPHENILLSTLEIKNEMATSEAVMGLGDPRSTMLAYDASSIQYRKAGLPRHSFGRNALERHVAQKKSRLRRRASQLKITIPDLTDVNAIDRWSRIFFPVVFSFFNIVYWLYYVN
T3 sequence (P62813 28-455): as the sequence (P62813 28-455) above
T3 sequence (P63138 26-474): as the sequence (P63138 26-474) above
T3 sequence (O14764 25-452): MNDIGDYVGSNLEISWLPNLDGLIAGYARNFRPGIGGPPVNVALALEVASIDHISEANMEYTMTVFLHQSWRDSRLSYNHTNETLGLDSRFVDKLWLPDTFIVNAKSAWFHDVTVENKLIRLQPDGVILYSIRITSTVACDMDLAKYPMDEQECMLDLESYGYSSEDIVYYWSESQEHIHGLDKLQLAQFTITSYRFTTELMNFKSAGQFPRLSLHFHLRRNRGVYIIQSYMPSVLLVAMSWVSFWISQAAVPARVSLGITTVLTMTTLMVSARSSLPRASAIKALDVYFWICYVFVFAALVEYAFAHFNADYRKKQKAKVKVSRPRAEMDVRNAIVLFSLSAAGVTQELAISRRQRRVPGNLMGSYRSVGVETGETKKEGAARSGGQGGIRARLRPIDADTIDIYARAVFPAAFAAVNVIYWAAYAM

SMILES: CC(=O)[C@H]1CC[C@H]2[C@@H]3CC[C@@H]4C[C@H](O)CC[C@]4(C)[C@H]3CC[C@]12C [3α, 5β-THP]
- increase of α4 expression compared to control (GABAR α4 subunit): threefold

SMILES: O=C1Nc2ccc(Cl)cc2C(c2ccccc2Cl)=NC1O (stereo not shown) [LZM, lorazepam]
- maximal potentiation of GABA-gated current ([1]; 10 μM LZM, 48 h 3α,5β-THP with 2 h ethanol): 90%
- potentiation of GABA-gated current ([1]; 10 μM LZM, 48 h 3α,5β-THP, saline-treated rats): 12-15%
- LZM-induced potentiation of GABA-gated current ([1]; 2 hours of ethanol after progesterone withdrawal): robust

SMILES: Oc1noc2c1CCNC2 [THIP, 4,5,6,7-tetrahydroisoxazolo[5,4-c]pyridin-3-ol]
- efficacy of THIP relative to GABA (maximum current) [2]: increased efficacy
- maximum current compared to that gated by GABA at α4βδ (α4β2δ GABAA receptors [3]): greater maximum current
- ratio of currents induced by THIP:GABA (α4β2δ GABAA receptors [4]; oocytes injected with α4+β2+δ subunits): 1.24
- attenuation of ASR (female Long Evans rats; P withdrawn animals): 70%
- increase of ASR (female Long Evans rats; control animals): about 40%

SMILES: [La] [lanthanum]
- inhibition of currents at α4β2δ receptors (α4β2δ GABAA receptors [4]; La3+ 300 μM): 80%

SMILES: [Zn] [zinc]
- zinc inhibition of GABA currents [5]: 66.4±6.4%
- zinc inhibition of GABA currents [6]: 49.1±6.4%
- zinc inhibition of GABA currents (α1β2 receptors): 72.4±6.9%

Reference: US7816074B2, “α4 β2 δGABA-A receptors as a strategy for PMS and alcoholism” (priority 2003, dated 2010)
